In PubChem BioAssay (NCI):
Values joined by “and” are separate entries in the source; they are usually repeats but may differ in a detail not shown here. Equal values may be shown once.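 Interpolation was linear, between the two tested concentrations surrounding the appropriate level; five concentrations were tested over 48 hours in 96-well plates. The concentration for 50% growth inhibition is given as GI50. At the TGI there is no net growth.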

What was measured:
Test in all cases: DTP human tumour cell line panel, 48 h
A498 renal = tested on: A498 renal
A549 NSCLC = tested on: A549 NSCLC
EKVX NSCLC = tested on: EKVX NSCLC
HT29 colon = tested on: HT29 colon
NCI-H226 lung = tested on: NCI-H226 lung
SF-539 CNS = tested on: SF-539 CNS
SK-MEL-28 melanoma = tested on: SK-MEL-28 melanoma
SK-OV-3 ovarian = tested on: SK-OV-3 ovarian
SN12C renal = tested on: SN12C renal
U251 CNS = tested on: U251 CNS

Structure (SMILES)	GI50 (A498 renal)	TGI (A498 renal)	GI50 (A549 NSCLC)	TGI (A549 NSCLC)	GI50 (EKVX NSCLC)	TGI (EKVX NSCLC)	GI50 (HT29 colon)	TGI (HT29 colon)	GI50 (NCI-H226 lung)	TGI (NCI-H226 lung)	GI50 (SF-539 CNS)	GI50 (SK-MEL-28 melanoma)	TGI (SK-MEL-28 melanoma)	GI50 (SK-OV-3 ovarian)	TGI (SK-OV-3 ovarian)	GI50 (SN12C renal)	TGI (SN12C renal)	GI50 (U251 CNS)	TGI (U251 CNS)	TGI (SF-539 CNS)
CCN1C(=O)N(CC)C2C1NN=c1s/c(=C\c3cc4ccccc4[nH]3)c(=O)n12 (configuration not stated)	0.0108 µM	0.0628 µM	0.0433 µM	> 100 µM	0.0453 µM	> 100 µM	< 0.01 µM	> 100 µM	0.186 µM	61.6 µM	< 0.01 µM	2.77 µM	> 83 µM	0.0246 µM	17.3 µM	0.0241 µM	14.6 µM	0.0383 µM	17.4 µM	
CN(C)CC1CCCCCC(CN(C)C)C1=O (configuration not stated)	15.1 µM	29.6 µM	14.7 µM	30.7 µM	12.5 µM	37.3 µM	1.35 µM	2.78 µM	9.98 µM	33.3 µM	4.16 µM	3.65 µM	10.5 µM	27.9 µM	> 93.6 µM	7.9 µM	22.8 µM	11.1 µM	25.6 µM	15.7 µM
C=C1CCC2C3(C)COC(c4ccccc4Br)OC3CCC2(C)C1C/C=C1/C(=O)OCC1OC(C)=O (configuration not stated)	1.6 µM	3.91 µM	2.06 µM	5.26 µM	2.55 µM	10.1 µM	0.804 µM	2.37 µM	1.64 µM	3.42 µM	1.53 µM	1.76 µM	3.15 µM	2.85 µM	6.78 µM	1.36 µM	3.28 µM	1.22 µM	2.46 µM	2.86 µM
O=C(OCCBr)c1ccc(Cl)c([N+](=O)[O-])c1	17.7 µM	42.4 µM	17.7 µM	35.4 µM	18.4 µM	37.1 µM	2.51 µM	5.14 µM	17.7 µM	37.6 µM	19.6 µM	2.51 µM	5.42 µM	17.2 µM	31 µM	17.1 µM	33.2 µM	1.71 µM	3.2 µM	36 µM
COc1cc(C2C3=C(COC3=O)Nc3cc4c(cc32)CCC4)cc2c1OCO2 (configuration not stated)	0.025 µM	0.0964 µM	0.061 µM	12.7 µM	0.486 µM	43.3 µM	0.0299 µM	0.845 µM	0.0391 µM	1.6 µM	0.0328 µM	0.0691 µM	24.4 µM	0.0335 µM	1.01 µM	0.0595 µM	20.2 µM	0.0452 µM	4.61 µM	8.73 µM
COc1cc(C(=O)/C=C/c2cccnc2Nc2ccccc2)cc(OC)c1OC	1.42 µM	2.75 µM	1.3 µM	2.86 µM	1.61 µM	3.04 µM	0.514 µM	2.15 µM	1.23 µM	2.58 µM	1.65 µM	1.58 µM	2.93 µM	1.6 µM	2.94 µM	1.21 µM	2.55 µM	1.12 µM	2.39 µM	3.12 µM
Nc1ccc(-c2ccc(N)cc2I)c(I)c1	10.7 µM	24.1 µM	29.9 µM	> 100 µM	19.1 µM	70.1 µM	20 µM	42.8 µM	17.2 µM	45.4 µM	14.5 µM	14.1 µM	38.6 µM	17 µM	44.4 µM	19.7 µM	55.8 µM	16.3 µM	35.6 µM	32.2 µM
Cc1ccc2c(c1)C(=O)c1c-2n(CCCBr)c(=O)c2cc([N+](=O)[O-])ccc12	51.7 µM	> 100 µM	> 100 µM	> 100 µM	> 100 µM	> 100 µM	62.8 µM	> 100 µM	96.9 µM	> 100 µM	> 100 µM	> 100 µM	> 100 µM	> 100 µM	> 100 µM	46.4 µM	> 100 µM	24.8 µM	> 100 µM	> 100 µM
N.N.NCCCCCCN.O=C([O-])CC(=O)[O-].O=C([O-])CC(=O)[O-].[Pt+4].[Pt+4]	> 100 µM	> 100 µM	> 100 µM	> 100 µM	> 100 µM	> 100 µM	62.5 µM	> 100 µM	> 56.7 µM	> 100 µM	73.9 µM	> 100 µM	> 100 µM	> 100 µM	> 100 µM	14.5 µM	> 100 µM	47.7 µM	> 100 µM	> 100 µM
COc1cc(C2CC(c3ccc(N(C)C)cc3)=NN2C(C)=O)cc(OC)c1OC (configuration not stated)	2.18 µM	> 47.4 µM	3.36 µM	> 100 µM	5.53 µM	> 100 µM	0.909 µM	> 39.5 µM	6.46 µM	> 100 µM	1.35 µM	21 µM	> 100 µM	5.46 µM	> 100 µM	11.3 µM	> 100 µM	1.65 µM	> 100 µM	5.34 µM
Cn1ccnc1C(=O)/C=C/c1ccc(CC(=O)Nc2ccc(C(F)(F)F)cc2)cc1	4.17 µM	11.8 µM	3.82 µM	10.3 µM	3.07 µM	8.49 µM	3.96 µM	9.02 µM	4.19 µM	16 µM	2.21 µM	2.92 µM	6.25 µM	6.6 µM	> 16.7 µM	4.32 µM	> 16.7 µM	1.89 µM	3.93 µM	4.45 µM
C=CCNC(=O)NCCCC(NC(C)=O)C(=O)NCc1ccccc1 (configuration not stated)		> 100 µM		> 100 µM		> 100 µM		> 100 µM		> 100 µM			> 100 µM		> 100 µM		> 100 µM		> 100 µM	> 100 µM
c1ccc(CSc2nnc3c4ccccc4c4ccccc4c3n2)cc1		> 100 µM		> 100 µM		> 100 µM		> 100 µM		> 100 µM			> 100 µM		50 µM		> 100 µM		> 100 µM	> 100 µM
COC(=O)C(F)C(Br)C(=O)OC (configuration not stated)		43.9 µM		39.1 µM		3.92 µM		5.43 µM		43.4 µM			34.3 µM		34.6 µM		30.9 µM		9.84 µM	20.4 µM
COCCNc1cc(NC(=O)N2CCCc3cc(CN4CCN(C)CC4=O)c(C=O)nc32)ncc1C#N	> 50 µM	> 50 µM	> 50 µM	> 50 µM	> 50 µM	> 50 µM	> 50 µM	> 50 µM	> 50 µM	> 50 µM	> 50 µM	> 50 µM	> 50 µM	> 50 µM	> 50 µM	> 50 µM	> 50 µM	> 50 µM	> 50 µM	> 50 µM
COc1ccc(-c2nn(-c3cccc(Cl)c3)cc2-c2cc(-c3ccccc3)nc(N)n2)cc1	2.21 µM	11.9 µM	2.7 µM	13.7 µM	2.32 µM	15 µM	2.07 µM	4.32 µM	4.99 µM	22 µM	11 µM	12.4 µM	42.1 µM	13.5 µM	29.2 µM	1.9 µM	5.02 µM	1.59 µM	3.03 µM	27.7 µM
C=C1CCC2[C@@H](CCC3[C@]2(C)CCC[C@]3(C)C(=O)OC)C1CCO (some centres not stated)		30.6 µM		32.5 µM		37.9 µM		17.8 µM		32.1 µM			28.1 µM		45.3 µM		27.5 µM		26.4 µM	26.3 µM
CC(C)N1C(NNC(=O)c2cnccn2)=NS(=O)(=O)c2ccccc21	> 100 µM	> 100 µM	> 100 µM	> 100 µM	> 100 µM	> 100 µM	> 100 µM	> 100 µM	> 100 µM	> 100 µM	> 100 µM	> 100 µM	> 100 µM	> 100 µM	> 100 µM	> 100 µM	> 100 µM	> 100 µM	> 100 µM	> 100 µM
C=C1CCc2occ(C)c2C2C1C1=C(CC(C)C1=O)C1OC12C (configuration not stated)		> 100 µM		> 100 µM		> 100 µM		> 100 µM		> 100 µM			> 100 µM		> 100 µM		> 100 µM		> 100 µM	> 100 µM
Cc1ccc(Sc2ccc(C)cc2[N+](=O)[O-])c([N+](=O)[O-])c1		> 100 µM		> 100 µM		> 100 µM		> 10 µM		> 100 µM			> 100 µM		> 100 µM		> 100 µM		> 100 µM	> 100 µM
OCC1OC(n2cnc3c(=S)nc[nH]c32)C(O)C1O (configuration not stated)	19.8 µM	> 2380 µM	42.5 µM	> 2500 µM	> 100 µM	> 2500 µM	4.72 µM	> 2500 µM	> 31.1 µM	> 2500 µM	3.3 µM	> 62.5 µM	> 2500 µM	1.25 µM	1060 µM and > 47.4 µM	34.3 µM	> 2500 µM	58.3 µM	> 2500 µM	> 2500 µM
Cn1cc(-c2ccc(-c3cn(C)c4ccc(Cl)cc34)s2)c2cc(Cl)ccc21	> 100 µM	> 100 µM	> 100 µM	> 100 µM	> 100 µM	> 100 µM	> 100 µM	> 100 µM	> 100 µM	> 100 µM	> 100 µM	> 100 µM	> 100 µM	> 100 µM	> 100 µM	> 100 µM	> 100 µM	> 100 µM	> 100 µM	> 100 µM
COC(=O)C1=C(C(=O)OC)SC(=C(N=Nc2ccccc2)c2ccccc2)S1		> 100 µM		> 100 µM		> 100 µM		> 100 µM		> 100 µM			> 100 µM		> 100 µM		> 100 µM		> 100 µM	> 100 µM
O=C(c1cccnc1)c1cc(-c2ccccn2)c(=O)n2ccccc12	> 100 µM	> 100 µM	> 100 µM	> 100 µM	> 100 µM	> 100 µM	> 100 µM	> 100 µM	> 100 µM	> 100 µM	> 100 µM	> 100 µM	> 100 µM	> 100 µM	> 100 µM	> 100 µM	> 100 µM	> 100 µM	> 100 µM	> 100 µM
CC#CC1C(OC(=O)c2ccccc2)CCCC1(CI)N=[N+]=[N-] (configuration not stated)		> 100 µM		> 100 µM		> 100 µM		> 100 µM		> 100 µM					> 100 µM		> 100 µM		> 100 µM	> 100 µM
O=C1NC2C=CN(Cc3ccccc3)C=C2C(=O)N2CCCC12 (configuration not stated)		> 100 µM		> 100 µM		> 100 µM		> 100 µM		> 100 µM			> 100 µM		> 100 µM		> 100 µM		> 100 µM	> 100 µM
CCN(CC)c1ccc(C(=N)c2ccc(N(C)C)cc2)cc1	1.17 µM	6.32 µM	1.62 µM	11.4 µM	2.04 µM	16.5 µM	0.0399 µM	4.02 µM	1.5 µM	5.46 µM	1.63 µM	0.384 µM	7.13 µM	2.15 µM	10.4 µM	2.36 µM	9.14 µM	1.33 µM	7.57 µM	4.18 µM
COc1ccc(/C=C2\CCC(CN(C)C)C2=O)cc1OC (configuration not stated)		27.8 µM		37.4 µM		34.1 µM		23.5 µM		28.2 µM			13.8 µM		33.7 µM		8.35 µM		30.8 µM	25 µM
O=C(Nc1nc(=S)c2c(ncn2CCO)[nH]1)c1ccccc1		> 100 µM		> 100 µM		> 100 µM		> 100 µM		> 100 µM					> 100 µM		> 100 µM		> 100 µM	> 100 µM
CN(C(=O)c1ccncc1)c1ccccc1		> 100 µM		> 100 µM		> 100 µM		> 100 µM		> 100 µM			> 100 µM		> 100 µM		> 100 µM		> 100 µM	> 100 µM
